This is an account of results in US12116343B2, “Inhibitors of APOL1 and methods of using same” (Vertex Pharmaceuticals Incorporated, priority 2020, dated 2024).

The term IC50 denotes the point on the concentration scale where inhibition reaches its midpoint.

This experiment deals with T1, G1 APOL1 (Homo sapiens, UniProt O14791, I384M/S342G).
T1 construct: expressed in transfected cells
T1 sequence (O14791 28-398 S342G/I384M): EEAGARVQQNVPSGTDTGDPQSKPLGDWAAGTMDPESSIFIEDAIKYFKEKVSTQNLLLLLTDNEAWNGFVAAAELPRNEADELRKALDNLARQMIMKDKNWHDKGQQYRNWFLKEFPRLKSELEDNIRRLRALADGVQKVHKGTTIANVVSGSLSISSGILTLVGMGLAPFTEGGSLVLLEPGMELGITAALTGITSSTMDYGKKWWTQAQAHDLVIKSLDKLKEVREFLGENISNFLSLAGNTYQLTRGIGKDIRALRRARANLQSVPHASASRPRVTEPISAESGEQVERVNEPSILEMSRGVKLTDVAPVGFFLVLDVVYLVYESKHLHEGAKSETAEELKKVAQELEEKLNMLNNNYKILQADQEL
Briefly: Acute APOL1 Thallium Assay with inducible stable clones of HEK 293 cells. Conditions: HEK 293 T-Rex cells expressing G1 APOL1; read-out: Thallium Assay (IC50). Format: cell-based. The method in brief: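 Tetracycline-inducible HEK293 T-Rex clone G1 DC3.25 expressing G1 APOL1, plated at 26000 cells/well in Opti-MEM with tetracycline induction. APOL1 pore activity read on FLIPR as fluorescence increase from Tl+ influx into cells loaded with a Tl+-sensitive AM-ester dye.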

Structures are written as SMILES.

With `O=C([C@H]1C[C@H](c2c(-c3ccc(F)cc3)[nH]c3c(F)cc(F)cc32)C1)N1CCOC(O)C1` (stereo partly shown) [Compound 115], the half-inhibitory concentration (IC50) lay in the range of 250 to 1000 nM.

As to `O=C([C@H]1C[C@H](c2c(-c3ccc(F)cc3)[nH]c3c(F)cc(F)cc32)C1)N(CCO)CCCO` [Compound 117], the IC50 was over 1000 nM.

As to `CCN(CCO)C(=O)[C@H]1C[C@H](c2c(-c3ccc(F)cc3)[nH]c3c(F)cc(F)cc32)C1` [Compound 124], the 50% inhibitory concentration (IC50) was in the range of 250 to 1000 nM.

`O=C([C@H]1C[C@H](c2c(-c3ccc(F)cc3)[nH]c3c(F)cc(F)cc32)C1)N1CC[C@H](CO)[C@H](O)C1` [Compound 100]: the IC50 was over 1000 nM.

As to `O=C([C@H]1C[C@H](c2c(-c3ccc(F)cc3)[nH]c3c(F)cc(F)cc32)C1)N1CCC(CCO)CC1` [Compound 134], the IC50 is over 1000 nM.

On to `O=C([C@H]1C[C@H](c2c(-c3ccc(F)cc3)[nH]c3c(F)cc(F)cc32)C1)N1CCN[C@H](CO)C1` [Compound 161], for which the concentration for half-maximal inhibition (IC50) was over 1000 nM.

For `O=C([C@H]1C[C@H](c2c(-c3ccc(F)cc3)[nH]c3c(F)cc(F)cc32)C1)N1CCOC(CO)C1` (stereo partly shown) [Compound 148], the half-inhibitory concentration (IC50) is over 1000 nM.

As to `C[C@@H](O)[C@@H](CO)NC(=O)[C@H]1C[C@H](c2c(-c3ccc(F)cc3)[nH]c3c(F)cc(F)cc32)C1` [Compound 160], the IC50 was 250 to 1000 nM.

As for `O=C(O)CNC(=O)[C@H]1C[C@H](c2c(-c3ccc(F)cc3)[nH]c3c(F)cc(F)cc32)C1` [Compound 10], the IC50 was over 1000 nM.

Turning to `C[C@@H](O)[C@H](CO)NC(=O)[C@H]1C[C@H](c2c(-c3ccc(F)cc3)[nH]c3c(F)cc(F)cc32)C1` [Compound 155], the IC50 is over 1000 nM.

On to `C[C@H]1CN(C(=O)[C@H]2C[C@H](c3c(-c4ccc(F)cc4)[nH]c4c(F)cc(F)cc43)C2)CC[C@@H]1O` [Compound 116], for which the half-inhibitory concentration (IC50) was over 1000 nM.

Turning to `CC(O)C1CCCN(C(=O)[C@H]2C[C@H](c3c(-c4ccc(F)cc4)[nH]c4c(F)cc(F)cc43)C2)C1` (stereo partly shown) [Compound 131], the half-inhibitory concentration (IC50) was over 1000 nM.

Consider `O=C([C@H]1C[C@H](c2c(-c3ccc(F)cc3)[nH]c3c(F)cc(F)cc32)C1)N1CCCC1CCO` (stereo partly shown) [Compound 101], for which the IC50 was over 1000 nM.

For the molecule `O=C([C@H]1C[C@H](c2c(-c3ccc(F)cc3)[nH]c3c(F)cc(F)cc32)C1)N1CCO[C@H](CO)C1` [Compound 118], the IC50 is over 1000 nM.

In the case of `O=C1NCC[C@@H]1NC(=O)[C@H]1C[C@H](c2c(-c3ccc(F)cc3)[nH]c3c(F)cc(F)cc32)C1` [Compound 162], the half-maximal inhibitory concentration (IC50) was 250 to 1000 nM.

In the case of `O=C([C@H]1C[C@H](c2c(-c3ccc(F)cc3)[nH]c3c(F)cc(F)cc32)C1)N1CC(O)C(N2CCOCC2)C1` (stereo partly shown) [Compound 106], the IC50 was over 1000 nM.

As to `O=C1CC[C@H](NC(=O)[C@H]2C[C@H](c3c(-c4ccc(F)cc4)[nH]c4c(F)cc(F)cc43)C2)C1` [Compound 139], the IC50 was in the range of 250 to 1000 nM.

Turning to `O=C([C@H]1C[C@H](c2c(-c3ccc(F)cc3)[nH]c3c(F)cc(F)cc32)C1)N1CCCC(CO)C1` (stereo partly shown) [Compound 147], the IC50 is over 1000 nM.

For the molecule `O=C([C@H]1C[C@H](c2c(-c3ccc(F)cc3)[nH]c3c(F)cc(F)cc32)C1)N1CCCCC1CO` (stereo partly shown) [Compound 145], the 50% inhibitory concentration (IC50) is over 1000 nM.

With `O=C(NCC1(O)CCC1)[C@H]1C[C@H](c2c(-c3ccc(F)cc3)[nH]c3c(F)cc(F)cc32)C1` [Compound 143], the IC50 was over 1000 nM.

Turning to `O=C(NC1CC(O)C1)[C@H]1C[C@H](c2c(-c3ccc(F)cc3)[nH]c3c(F)cc(F)cc32)C1` (stereo partly shown) [Compound 5], the IC50 lay in the range of 250 to 1000 nM.

For `O=C([C@H]1C[C@H](c2c(-c3ccc(F)cc3)[nH]c3c(F)cc(F)cc32)C1)N1CCCC(O)C1` (stereo partly shown) [Compound 150], the IC50 is over 1000 nM.

As for `CC(C)(NC(=O)[C@H]1C[C@H](c2c(-c3ccc(F)cc3)[nH]c3c(F)cc(F)cc32)C1)C(N)=O` [Compound 11], the IC50 was 250 to 1000 nM.

Take `C[C@H](CO)N(C)C(=O)[C@H]1C[C@H](c2c(-c3ccc(F)cc3)[nH]c3c(F)cc(F)cc32)C1` [Compound 142]: the IC50 lay in the range of 250 to 1000 nM.

Consider `NC(=O)[C@H]1CCCN1C(=O)[C@H]1C[C@H](c2c(-c3ccc(F)cc3)[nH]c3c(F)cc(F)cc32)C1` [Compound 153], for which the IC50 is 250 to 1000 nM.
